Laboratory results: patent publication US20240239755A1, “SUBSTITUTED PYRIDAZINONES, SALTS OR N-OXIDES THEREOF AND THEIR USE AS HERBICIDALLY ACTIVE SUBSTANCES” (Bayer Aktiengesellschaft, priority 2021, published 2024)

How the values were obtained:
Type in all cases: in vivo
Kochia scoparia (KCHSC) [1] = test: Herbicidal pre-emergence action, 1280 g/ha (Table A4); details: visual grading after ca. 3 weeks vs untreated controls
How it was run: (§1)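 Compounds were formulated as WP or EC and sprayed onto the covering soil of freshly sown pots (sandy loam) in 600 L water/ha with 0.5% additive. Pots were kept in a greenhouse, and damage was scored visually after ca. 3 weeks as % effect versus untreated controls (100% = dead).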

Lolium rigidum (LOLRI) [2] = test: Herbicidal pre-emergence action, 1280 g/ha (Table A5); details: visual grading after ca. 3 weeks vs untreated controls
How it was run: as §1

[3] = system: Matricaria inodora (MATIN); test: Herbicidal pre-emergence action, 1280 g/ha (Table A6); details: visual grading after ca. 3 weeks vs untreated controls
How it was run: as §1

Poa annua (POAAN) = test: Herbicidal pre-emergence action, 1280 g/ha (Table A7); details: visual grading after ca. 3 weeks vs untreated controls
Description: (§2) Seeds of mono- and dicotyledonous weed plants were sown in plastic pots (double sowings with one species of mono- and one species of dicotyledonous weed plants per pot), in sandy loam, and covered with soil. The compounds according to the invention, formulated in the form of wettable powders (WP) or as emulsifiable concentrates (EC), were applied to the surface of the covering soil as an aqueous suspension or as an emulsion, with the addition of 0.5% of an additive, at an application rate of 600 litres of water per hectare (converted). Following treatment, the pots were placed in a greenhouse and kept under optimum growth conditions for the test plants. The visual grading of the damage to the test plants was carried out after ca. 3 weeks in comparison to untreated controls (herbicidal effect in percent (%): 100% effect=plants have died, 0% effect=as control plants). Tables A1 to A11 below, show the effects of selected compounds of the general formula (I) according to Table 1 on various harmful plants and an application rate corresponding to 1280 g/ha obtained by the experimental procedure mentioned above.

Stellaria media (STEME) [4] = test: Herbicidal pre-emergence action, 1280 g/ha (Table A9); details: visual grading after ca. 3 weeks vs untreated controls
How it was run: as §1

[5] = system: Amaranthus retroflexus (AMARE); test: Herbicidal pre-emergence action, 1280 g/ha (Table A11); details: visual grading after ca. 3 weeks vs untreated controls
How it was run: as §1

[6] = system: Abutilon theophrasti (ABUTH); test: Herbicidal post-emergence action, 1280 g/ha (Table B1); details: visual assessment after ca. 3 weeks vs untreated controls
How it was run: (§3)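 Post-emergence greenhouse pot test: weeds in sandy loam sprayed at single-leaf stage, 2–3 weeks after sowing, with WP or EC formulations plus 0.5% additive at 600 L water/ha. Effect scored visually ca. 3 weeks later versus untreated controls, 0% = as control, 100% = plants dead.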

[7] = system: Echinochloa crus-galli (ECHCG); test: Herbicidal post-emergence action, 1280 g/ha (Table B3); details: visual assessment after ca. 3 weeks vs untreated controls
Description: (§4) Seeds of mono- and dicotyledonous weed plants were sown in plastic pots (double sowings with one species of mono- and one species of dicotyledonous weed plants per pot), in sandy loam, covered with soil and grown under controlled growth conditions. 2 to 3 weeks after sowing, the test plants were sprayed in the single-leaf stage. The compounds according to the invention, formulated in the form of wettable powders (WP) or as emulsifiable concentrates (EC), were sprayed onto the green plant parts as an aqueous suspension or as an emulsion, with the addition of 0.5% of an additive, at an application rate of 600 litres of water per hectare (converted). The test plants were placed in the greenhouse for ca. 3 weeks under optimum growth conditions, and then the effect of the preparations was assessed visually in comparison with untreated controls (herbicidal effect in percent (%): 100% effect=plants have died, 0% effect=as control plants). Tables B1 to B11 below, show the effects of selected compounds of the general formula (I) according to Table 1 on various harmful plants using an application rate corresponding to 1280 g/ha obtained by the experimental procedure mentioned above.

Lolium rigidum (LOLRI) [8] = test: Herbicidal post-emergence action, 1280 g/ha (Table B5); details: visual assessment after ca. 3 weeks vs untreated controls
Description: as §4

[9] = system: Matricaria inodora (MATIN); test: Herbicidal post-emergence action, 1280 g/ha (Table B6); details: visual assessment after ca. 3 weeks vs untreated controls
How it was run: as §3

Stellaria media (STEME) [10] = test: Herbicidal post-emergence action, 1280 g/ha (Table B9); details: visual assessment after ca. 3 weeks vs untreated controls
How it was run: as §3

[11] = system: Amaranthus retroflexus (AMARE); test: Herbicidal post-emergence action, 1280 g/ha, AMARE; details: visual grading vs untreated controls
How it was run: (§5)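 Pot-grown weeds in sandy loam sprayed post-emergence at the single-leaf stage, 2–3 weeks after sowing, with WP or EC formulations plus 0.5% additive in 600 L water/ha at 1280 g/ha. After ca. 3 weeks in the greenhouse, damage scored visually as % effect versus untreated controls (100% = plants dead).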

Lolium rigidum (LOLRI) [12] = test: Herbicidal pre-emergence action, 320 g/ha (Table C2); details: visual grading after ca. 3 weeks vs untreated controls
Description: as §2, with “Tables C1” for “Tables A1”, “to C6” for “to A11”, “plants using” for “plants and”, “to 320” for “to 1280”

Stellaria media (STEME) [13] = test: Herbicidal pre-emergence action, 320 g/ha, STEME; details: visual grading after ca. 3 weeks
How it was run: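 Weed seeds sown in sandy loam pots; WP or EC formulations applied pre-emergence to the covering soil surface at 320 g/ha with 0.5% additive in 600 L water/ha. Greenhouse growth; visual damage scored after ca. 3 weeks versus untreated controls (100% = plants died, 0% = as control).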

[14] = system: Abutilon theophrasti (ABUTH); test: Herbicidal post-emergence action, 320 g/ha, ABUTH; details: visual grading after ca. 3 weeks
How it was run: (§6)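 Weeds grown in sandy loam were sprayed post-emergence at the single-leaf stage, 2–3 weeks after sowing. Compounds were formulated as WP or EC with 0.5% additive and applied at 320 g/ha in 600 L water/ha. After ~3 weeks in the greenhouse, damage was scored visually as % versus untreated controls (100% = dead).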

Stellaria media (STEME) [15] = test: Herbicidal post-emergence action, 320 g/ha, STEME; details: visual grading after ca. 3 weeks
How it was run: as §6

[16] = system: Amaranthus retroflexus (AMARE); test: Herbicidal post-emergence action, 320 g/ha, AMARE; details: visual grading after ca. 3 weeks
How it was run: as §6

[17] = system: Abutilon theophrasti (ABUTH); test: Herbicidal pre-emergence action, 1280 g/ha (Table A1); details: visual grading after ca. 3 weeks vs untreated controls
Description: as §2

Kochia scoparia (KCHSC) [18] = test: Herbicidal post-emergence action, 1280 g/ha (Table B4); details: visual assessment after ca. 3 weeks vs untreated controls
How it was run: as §3

Veronica persica (VERPE) [19] = test: Herbicidal post-emergence action, 1280 g/ha, VERPE; details: visual grading vs untreated controls
How it was run: as §5

Setaria viridis (SETVI) [20] = test: Herbicidal post-emergence action, 1280 g/ha (Table B8); details: visual assessment after ca. 3 weeks vs untreated controls
Description: as §4

Kochia scoparia (KCHSC) [21] = test: Herbicidal post-emergence action, 320 g/ha, KCHSC; details: visual grading after ca. 3 weeks
Description: as §4, with “plants).” for “plants). Tables B1 to B11 below, show the effects of selected compounds of the general formula (I) according to Table 1 on various harmful plants using an application rate corresponding to 1280 g/ha obtained by the experimental procedure mentioned above.”
(§7) Tables D1 to D8 below, show the effects of selected compounds of the general formula (I) according to Table 1 on various harmful plants using an application rate corresponding to 320 g/ha obtained by the experimental procedure mentioned above.

Setaria viridis (SETVI) [22] = test: Herbicidal pre-emergence action, 1280 g/ha (Table A8); details: visual grading after ca. 3 weeks vs untreated controls
Description: as §2

Lolium rigidum (LOLRI) [23] = test: Herbicidal post-emergence action, 320 g/ha, LOLRI; details: visual grading after ca. 3 weeks
Description: as §4, with “plants).” for “plants). Tables B1 to B11 below, show the effects of selected compounds of the general formula (I) according to Table 1 on various harmful plants using an application rate corresponding to 1280 g/ha obtained by the experimental procedure mentioned above.”
as §7

[24] = system: Matricaria inodora (MATIN); test: Herbicidal post-emergence action, 320 g/ha, MATIN; details: visual grading after ca. 3 weeks
Description: as §4, with “plants).” for “plants). Tables B1 to B11 below, show the effects of selected compounds of the general formula (I) according to Table 1 on various harmful plants using an application rate corresponding to 1280 g/ha obtained by the experimental procedure mentioned above.”
as §7

Veronica persica (VERPE) [25] = test: Herbicidal post-emergence action, 320 g/ha, VERPE; details: visual grading after ca. 3 weeks
Description: as §4, with “plants).” for “plants). Tables B1 to B11 below, show the effects of selected compounds of the general formula (I) according to Table 1 on various harmful plants using an application rate corresponding to 1280 g/ha obtained by the experimental procedure mentioned above.”
as §7

SMILES | herbicidal effect KCHSC (Kochia scoparia (KCHSC) [1]) | herbicidal effect LOLRI (Lolium rigidum (LOLRI) [2]) | herbicidal effect MATIN [3] | herbicidal effect STEME (Stellaria media (STEME) [4]) | herbicidal effect AMARE [5] | herbicidal effect ABUTH [6] | herbicidal effect ECHCG [7] | herbicidal effect LOLRI (Lolium rigidum (LOLRI) [8]) | herbicidal effect MATIN [9] | herbicidal effect STEME (Stellaria media (STEME) [10]) | herbicidal effect AMARE [11] | herbicidal effect LOLRI (Lolium rigidum (LOLRI) [12]) | herbicidal effect STEME (Stellaria media (STEME) [13]) | herbicidal effect ABUTH [14] | herbicidal effect STEME (Stellaria media (STEME) [15]) | herbicidal effect AMARE [16] | herbicidal effect ABUTH [17] | herbicidal effect KCHSC (Kochia scoparia (KCHSC) [18]) | herbicidal effect VERPE (Veronica persica (VERPE) [19]) | herbicidal effect SETVI (Setaria viridis (SETVI) [20]) | other results
Cc1nn(C)c(=O)c(Oc2ccccc2C(C)C)c1O [Example I-022] | 90% | 100% | 90% | 100% | 90% | 100% | 90% | 90% | 90% | 100% | 90% | 100% | 100% | 90% | 90% | 90% |  |  |  |  | herbicidal effect POAAN (Poa annua (POAAN)): 90%
CC(=O)Oc1c(C)nn(C)c(=O)c1Oc1ccccc1OC(F)(F)F [Example I-029] | 90% | 100% | 100% | 100% | 100% | 100% | 90% | 90% | 90% | 100% | 90% | 90% |  | 90% | 90% | 90% | 90% | 90% | 90% |  | 
CCOC(=O)Oc1c(C)nn(C)c(=O)c1Oc1ccc(Cl)cc1C1CC1 [Example I-036] |  | 90% | 100% | 100% |  | 90% |  | 90% | 90% | 90% | 100% |  |  | 90% |  | 90% |  | 90% | 90% | 90% | herbicidal effect KCHSC (Kochia scoparia (KCHSC) [21]): 90%
CCOC(=O)Oc1c(C)nn(C)c(=O)c1Oc1cc(F)ccc1C1CC1 [Example I-045] |  | 100% | 90% | 100% | 100% | 100% |  | 100% | 100% | 100% | 100% | 90% | 90% | 100% | 90% | 90% | 90% | 90% | 100% | 90% | herbicidal effect SETVI (Setaria viridis (SETVI) [22]): 90%; herbicidal effect KCHSC (Kochia scoparia (KCHSC) [21]): 90%; herbicidal effect LOLRI (Lolium rigidum (LOLRI) [23]): 100%; herbicidal effect MATIN [24]: 90%; herbicidal effect VERPE (Veronica persica (VERPE) [25]): 100%
CCOC(=O)Oc1c(C)nn(C)c(=O)c1Oc1cc(F)ccc1Br [Example I-088] |  | 100% | 100% | 90% | 100% |  |  | 90% | 90% | 90% | 100% | 90% |  |  |  | 90% |  |  |  | 90% | 
CCOC(=O)Oc1c(C)nn(C)c(=O)c1Oc1cc(F)c(F)cc1Br [Example I-093] | 90% |  | 90% |  | 90% | 90% |  |  | 90% | 90% | 100% |  |  |  |  |  |  |  | 90% | 90% | herbicidal effect MATIN [24]: 90%
